The source of these data is PubChem BioAssay AID2305 (GlaxoSmithKline (GSK), 2010).

By IC50 is commonly meant the concentration needed to halve the response being measured.

In the experiment the test system is P. falciparum 3D7 growth, pLDH absorbance. The experiment can be described thus: blood-stage malaria parasite growth potency – strain 3D7, dose response (AID 2305).
`O=[N+]([O-])c1cccc(C=NNc2ccnc3ccc(C(F)(F)F)cc23)c1` returned a 50% inhibitory concentration (IC50) of 1090 nM.

Molecule `N#Cc1ccc(CN2CCC(Oc3ccc(NC(=O)c4cccs4)cc3Cl)C2)cc1` (stereo unspecified) showed an IC50 of 400 nM.

`Cc1ccccc1C(=O)NC(NC(=S)Nc1ccc([N+](=O)[O-])cc1)C(Cl)(Cl)Cl` (stereo unspecified) showed a half-inhibitory concentration (IC50) of 740 nM.

Regarding `CCN(CCCN1CCCCC1)c1nccc(Nc2ccc(Cl)cc2)n1`, the IC50 was 1190 nM.

As for `CC(C)(C)CC(=O)Nc1ccc(Nc2cc(-c3ccncc3)cc3ncc(C(N)=O)cc23)cc1`, the half-maximal inhibitory concentration (IC50) was 700 nM.

`c1ccc(CN2CCc3cc4nccc(N5CCNCC5)c4cc32)cc1` showed a half-inhibitory concentration (IC50) of 400 nM.

As to `CC(C)Cn1c(Sc2ccc(C#N)c([N+](=O)[O-])c2)nnc1-c1ccccc1Cl`, the IC50 came to 900 nM.

Consider `CCN(CC)CCN(Cc1ccc(-c2ccc(C(F)(F)F)cc2)cc1)C(=O)c1ccc(-c2ccc(NC(=O)OC)cc2C)cc1`, for which the IC50 stood at 930 nM.

`COc1cc2nc(C)nc(Nc3cccc(Br)c3)c2cc1OC` came in with an IC50 of 360 nM.

With `COc1c(C2CCN(CCCCNC(=O)c3ccc(-c4ccc(C#N)cc4)cc3)CC2)ccc2c1C(C)(C)CCC2(C)C`, the IC50 was 410 nM.

The molecule `COc1cc(OC)cc(-c2nn(-c3ccc([N+](=O)[O-])cc3Cl)c(=S)n2CC2CCCO2)c1` (stereo unspecified) displayed an IC50 of 960 nM.

Take `c1ccc2c(NCCCCCCNc3ccnc4ccccc34)ccnc2c1`: the 50% inhibitory concentration (IC50) worked out at 190 nM.

For `CCc1ccc(-n2c(=O)c3cccnc3n2CC(=O)NC2CCCC2)cc1`, the IC50 was determined as 920 nM.

`COc1ccccc1C1CCN(C2CCC(NC(=O)/C=C/c3ccc(F)c(F)c3)CC2)CC1` (stereo unspecified) showed a half-inhibitory concentration (IC50) of 1320 nM.

As for `Cn1nc(-c2ccccc2F)c2cc(C(=O)NC3CCN(Cc4ccccc4)CC3)sc21`, the half-maximal inhibitory concentration (IC50) came to 790 nM.

As for `Cc1nnsc1C(=O)Nc1cccc(-c2cccc(-c3nc4ccc(C(F)(F)F)cc4[nH]3)c2)c1`, the IC50 is 240 nM.

`NC1=NC(CCc2ccccc2)N(c2ccccc2)C(N)=N1` (stereo unspecified) had an IC50 of 80 nM.

`COc1ccc2nccc(NC(=O)CNCc3ccc(-c4ccccc4)cc3)c2c1` showed an IC50 of 770 nM.

Regarding `Cc1c(S(=O)(=O)Nc2ccc3ccn(CCN(C)C)c3c2)sc2ccc(Cl)cc12`, the concentration for half-maximal inhibition (IC50) stood at 920 nM.

Consider `CN(c1ccc(NC(=O)CCOc2ccccc2)cc1)C1CCN(Cc2cccc(O)c2)CC1`, for which the concentration for half-maximal inhibition (IC50) worked out at 1320 nM.

As for `NC1=NC(C=Cc2ccccc2)N(OCCCCCCON2C(N)=NC(N)=NC2C=Cc2ccccc2)C(N)=N1` (stereo unspecified), the half-maximal inhibitory concentration (IC50) was determined as 610 nM.

Turning to `OCCN1CCN(Cc2cccc(-c3ccc(-c4nc5ccc(C(F)(F)F)cc5[nH]4)cc3)c2)CC1`, the IC50 stood at 560 nM.

`COc1ccc(C2C(C(=O)Nc3ccc(C)c(F)c3)c3cc(OC)c(OC)cc3C(=O)N2C)cc1` (stereo unspecified) showed a concentration for half-maximal inhibition (IC50) of 960 nM.

The molecule `Cc1cc(F)ccc1C1CCN(CCCCNC(=O)c2ccc(NC(=O)c3ccc(Cl)cc3)cc2)CC1` displayed an IC50 of 690 nM.

On to `O=C(Nc1ccc(SC(F)(F)F)cc1)Nc1ccc(Cl)c(Cl)c1`, for which the IC50 was 910 nM.

For `CC1CCN(Cc2c(O)ccc3c(CN4CCC(C)CC4)c(O)ccc23)CC1`, the IC50 was 130 nM.

Molecule `Cc1noc(C)c1S(=O)(=O)N(C)Cc1ccc(-c2ccc(Cl)cc2)o1` yielded an IC50 of 360 nM.

Molecule `COc1cccc(-c2cc(C(=O)Nc3cc(Oc4ccc(O)cc4)cc([N+](=O)[O-])c3)on2)c1` had a half-inhibitory concentration (IC50) of 1050 nM.

`O=S(=O)(c1ccc(OCc2ccc(Cl)cc2)cc1)c1cc2c(cc1O)CCN(C1CCC1)CC2` showed a half-inhibitory concentration (IC50) of 940 nM.

`Cc1cc(C(=O)CN2C(=O)NC3(CCOc4ccccc43)C2=O)c(C)n1Cc1ccc(F)cc1` (stereo unspecified) yielded an IC50 of 880 nM.

`CN1CCN(c2ccnc3ccc(NC(=O)Nc4ccc5c(c4)CCC5=O)cc23)CC1` registered a concentration for half-maximal inhibition (IC50) of 330 nM.

The molecule `c1ccc2c(C3CCN(CCCCOc4ccc5c(c4)CCN(C4CCC4)CC5)CC3)c[nH]c2c1` displayed a 50% inhibitory concentration (IC50) of 710 nM.

`O=C(NCC1CC1)C1CCN(C(c2ccccc2)c2ccc(Cl)c(Cl)c2)CC1` (stereo unspecified) gave a half-inhibitory concentration (IC50) of 370 nM.

Take `Cc1ccc(NC(=O)Nc2ccc(Cl)cc2)cc1-c1cccc(C(=O)Nc2ccc(F)cc2)c1`: the IC50 stood at 740 nM.

As to `O=C(/C=C/c1ccc(Cl)c(Cl)c1)NCCCCN1CCCN(C(=O)Nc2ccc(C(F)(F)F)cc2)CC1`, the IC50 was 850 nM.

`CCCc1ccc(S(=O)(=O)NC2CCN(c3ccnc(Nc4ccc(OC)cc4)n3)C2)cc1` (stereo unspecified) returned a half-maximal inhibitory concentration (IC50) of 1190 nM.

In turn, `c1ccc(Oc2ccc(Nc3ccnc4cc(-c5ccc(CN6CCOCC6)o5)ccc34)cc2)nc1` came in with a concentration for half-maximal inhibition (IC50) of 910 nM.

With `Oc1cccc2ccc(Nc3ccccn3)nc12`, the IC50 is 750 nM.

Take `COc1cccc2c1CCN(CCN1CCC(CNC(=O)c3ccc(-c4ccc(C#N)cc4)cc3)CC1)C2`: the IC50 came out at 760 nM.

Consider `O=C1[C@H]2C(c3ccc(Cl)c(Cl)c3)N3CC(OCc4ccccc4)CC3(C(=O)O)[C@H]2C(=O)N1c1ccc(Br)cc1` (stereo partly specified), for which the IC50 was 340 nM.

`O=C(Nc1ccc(CCNCCCc2ccccc2)cc1)Nc1ccc(Cl)c(Cl)c1`: the 50% inhibitory concentration (IC50) was found to be 270 nM.

With `COc1nc2c(N3CCN(CCNCc4ccc5c(n4)NC(=O)CO5)CC3)ccnc2cc1F`, the IC50 is 760 nM.

The molecule `CC(=O)Nc1cccc(C(=O)Nc2nc3ccc(-c4cc(=O)[nH]c(Nc5ccccc5Cl)n4)cc3[nH]2)c1` registered an IC50 of 690 nM.

Molecule `Cc1cc(N2CCN(C3CCCCC3)CC2)nc2cccc(O)c12` returned a 50% inhibitory concentration (IC50) of 700 nM.

`O=C(/C=C/c1ccc(Cl)cc1)NCCCCCN1CCCC(C(=O)Nc2cccc(Cl)c2)C1` (stereo unspecified): the concentration for half-maximal inhibition (IC50) worked out at 210 nM.

`CCN(CC)CCN(Cc1ccc(-c2ccc(C(F)(F)F)cc2)cc1)C(=O)Cn1c(CCc2cccc(C#N)c2)nc(=O)c2ccccc21`: the concentration for half-maximal inhibition (IC50) worked out at 770 nM.

In turn, `O[C@H]1[C@H](OCc2ccc(-c3ccccc3)cc2)CC[C@@H]1N1CCCCC1` had an IC50 of 1060 nM.

In turn, `CCCN(CCC)C(C)CCC(C)Nc1c2ccc(Cl)cc2nc2ccc(OC)cc12` (stereo unspecified) had an IC50 of 70 nM.

Molecule `O=C(c1cccc(Cl)c1)N1CCN(c2ccc([N+](=O)[O-])c(NC3CC3)c2)CC1` displayed a 50% inhibitory concentration (IC50) of 870 nM.

For the molecule `CC(=O)Nc1ncc(C(=O)Nc2cccc(-c3cccc(-c4nc5ccc(C(F)(F)F)cc5[nH]4)c3)c2)s1`, the IC50 turned out to be 180 nM.

As for `CCCN1CCc2c(sc3nc(SCC(=O)Nc4ccc(C)cc4)n(-c4ccc(C)cc4)c(=O)c23)C1`, the IC50 was 870 nM.

The molecule `Cn1cc(C2CCN(CCCCCNC(=O)/C=C/c3ccc(Cl)c(Cl)c3)CC2)c2cc(O)ccc21` came in with a half-inhibitory concentration (IC50) of 940 nM.

In the case of `CC(C)C[C@H](NC(=O)c1ccc(OCCN2CCOCC2)cc1)C(=O)NC(/C=N/N1CCCC1=O)C(C)C` (stereo partly specified), the concentration for half-maximal inhibition (IC50) is 250 nM.

The molecule `FC(F)(F)c1cccc(Nc2nc3nonc3nc2NC2C3CC4CC(C3)CC2C4)c1` (stereo unspecified) displayed an IC50 of 660 nM.

Consider `O=C(Cn1c(CCc2cccc(F)c2F)nc(=O)c2ccccc21)N(CCCN1CCCC1)Cc1ccc(-c2ccc(C(F)(F)F)cc2)cc1`, for which the 50% inhibitory concentration (IC50) was 940 nM.

As for `COc1ccc(CNCc2ccccc2)cc1-c1ccc(S(=O)(=O)NCCN2CCCC2)s1`, the concentration for half-maximal inhibition (IC50) turned out to be 670 nM.

Consider `Cc1cc(NCCC(=O)NCCc2ccccc2)nc(NCCc2ccc(F)cc2)n1`, for which the half-maximal inhibitory concentration (IC50) stood at 1080 nM.

Turning to `Cc1[nH]nc2ccc(-c3cc(OC[C@@H](N)Cc4ccccc4)cnc3-c3ccccc3OCc3cccc(F)c3)cc12`, the IC50 came to 1220 nM.

On to `O=C(/C=C/c1ccc(I)cc1)NCCCCCN1CCC(c2c[nH]c3ccccc23)CC1`, for which the IC50 was 840 nM.

Turning to `COc1ccc2nccc([C@@H](O)CN3CCC(NCCOc4cc(C(F)(F)F)ccc4F)CC3)c2c1`, the half-maximal inhibitory concentration (IC50) amounted to 110 nM.

As for `CN1CCC(Oc2ccc(CN3CC[C@H](NC(=O)c4cccc(C#N)c4)C3)c3ccccc23)C1` (stereo partly specified), the IC50 was found to be 800 nM.
